Paper PMC8448819, “The Arabidopsis MIK2 receptor elicits immunity by sensing a conserved signature from phytocytokines and microbes” (Nature Communications, 2021)
Where “and” joins values, the source holds several entries; their conditions need not be identical. Equal entries are not always repeated. Where two headings read alike, the source gives them in different places.

Experiments:
[1] = test system: mik2-1 and mik2-2 mutant seedlings; type: in vivo, Arabidopsis thaliana; conditions: for Root length (Fig. 3d) / Root length (Fig. 3b) / Root length (Fig. 3e): individual values, one per line
BIK1 = BIK1 phosphorylation assay; type: cell-based, Arabidopsis thaliana; conditions: protoplasts expressing BIK1-HA, 1 μM, 15 min, mobility shift
Experimental: WT protoplasts were transfected with pHBT-35S::BIK1-HA for 12 h followed by treatment with 1 μM SCOOP peptides for 15 min.

[2] = test system: WRKY30, WRKY33 and CYP81F2 expression, WT seedlings; assay: RT-qPCR of defense genes, WT; type: in vivo, Arabidopsis thaliana
Arabidopsis WT seedlings = assay: ROS assay (luminol), WT seedlings; type: in vivo, Arabidopsis thaliana; conditions: for ROS production, total luminescence (Fig. 2h): WT seedlings; for ROS production, total luminescence (Fig. 3f): WT
Experimental: (§1) ROS burst was determined by a luminol-based assay. […] Then, ddH2O was replaced by 200 µL of reaction solution containing 50 µM of luminol, and 10 µg/mL of horseradish peroxidase (Sigma-Aldrich) supplemented with or without 100 nM or 1 μM peptide. Luminescence was measured immediately after adding the solution with a luminometer (Glomax 20/20n, Promega) with a one-second interval for 15 min. The total values of ROS production were indicated as means of the relative light units (RLUs).

[3] = test system: MPK3, MPK4 and MPK6 phosphorylation, mik2-1 seedlings; assay: MAPK assay (α-pERK1/2 immunoblot), mik2-1; type: in vivo, Arabidopsis thaliana; set-up: dose or concentration left out as unconfirmed; conditions: mik2-1, α-pERK1/2 immunoblot
[4] = test system: bik1/pbl1 mutant seedlings; assay: Root growth assay, bik1/pbl1 mutant; type: in vivo, Arabidopsis thaliana; conditions: bik1/pbl1, 1 µM
Source text: (§2) The Arabidopsis thaliana accession Columbia-0 (Col-0) was used as wild type (WT). T-DNA insertion mutants of mik2-1 (SALK_061769), mik2-2 (SALK_046987), mik2-like (SALK_112341), and rlk7-3 (SALK_120595) were obtained from the Nottingham Arabidopsis Stock Centre (NASC). The fls2 (SALK_141277), bak1-4, bik1-1/pbl1-1, bak1-5/serk4-1, rbohd mutants, and the transgenic line expressing p35S::GFP have been reported previously[19],[62],[63]. The hae/hsl2 mutant was kindly provided by Dr. Reidunn B. Aalen (University of Oslo, Norway), the pepr1-2/pepr2-2 (pepr1,2) mutant by Dr. Zhi Qi (Inner Mongolia University, China), the scoop12 mutant by Dr. Sébastien Aubourg (INRA, France), a transgenic line expressing p35S::Aequorin by Dr. Marc Knight (Durham University, UK), transgenic line expressing pMYB51::GUS by Dr. Frederick M. Ausubel (Harvard Medical School, USA). […]
(§3) Cold stratified seeds were surface-sterilized with 70% (v/v) ethanol for 5 min and were sown on ½MS plates with or without peptides at indicated concentrations. Ten-day-old seedlings grown on plates vertically in a growth chamber were photographed, and the root lengths of seedlings were measured using Image J (http://rsb.info.nih.gov/ij/).

[5] = test system: bak1-4 and bak1-5/serk4 mutant seedlings; assay: Root growth assay, coreceptor mutants; type: in vivo, Arabidopsis thaliana
Source text: as §2, §3

[6] = test system: MYB51 promoter, pMYB51::GUS seedling roots; assay: Histochemical GUS staining, pMYB51::GUS; type: in vivo, Arabidopsis thaliana; conditions: pMYB51::GUS seedlings, 1 µM, 3 h
Source text: Stained samples were fixed with a 3:1 ethanol:acetic acid solution overnight and cleared by lactic acid and photographed with the Olympus SZX10 stereoscopic microscope equipped with DP27 camera.

Arabidopsis = conditions: cited from earlier work
Source text: Some plant LRR-RKs are pattern recognition receptors (PRRs) that recognize pathogen- or microbe-associated molecular patterns (PAMPs or MAMPs) or damage-associated molecular patterns (DAMPs) and initiate pattern-triggered immunity (PTI)[10]-[13]. […] Despite the differ ... || Plant plasma membrane-resident RKs perceive diverse exogenous and endogenous signals via the extracellular domain and activate intracellular responses through the cytoplasmic kinase domain[1]-[3]. The chimeric receptors with the swapped extracellular and intracellular domains between different RKs have been used to study the specificity of signal perception and signaling activation[48]-[52]. The extracellular domains of RKs determine the ligand-binding specificity[50],[51],[53]. The intracellular kinase domains of different RKs also trigger specific responses. […] It remains unknown why plants have evolved so many SCOOPs and the functional specificity for different SCOOPs. […] SCOOP12, the most studied SCOOP, is highly expressed in roots (Fig. 2b), and was indicated to regulate ro ...

[7] = test system: RLK7^ECD-MIK2^TK/rlk7 and RLK7/rlk7 transgenic seedlings; assay: ROS assay (luminol), RLK7/rlk7 and RLK7^ECD-MIK2^TK/rlk7 seedlings; type: in vivo, Arabidopsis thaliana; conditions: for ROS production, total: Fig. 1d
Experimental: as §1

## PNGDIFTGPSGSGHGGGR [SCOOP10B, synthesized SCOOP peptide corresponding to the SxS motif]
[1]; 1 to 100 nM SCOOP10^B
  root growth retardation, concentration series, mik2-1: completely abolished in mik2-1
[1]; mik2-1, 1 nM
  Root length (Fig. 3d): 32.99 and 31.78 and 33.56 and 34.62 and 30.06 and 35.81 and 29.29
[1]; mik2-1, 10 nM
  Root length (Fig. 3d): 32.32 and 29.96 and 32.75 and 34.52 and 30.66 and 29.77 and 30.84 and 33.97
[1]; mik2-1, 100 nM
  Root length (Fig. 3d): 29.63 and 33.44 and 32.76 and 35.81 and 32.02 and 28.87 and 34.13 and 30.25
[1]; mik2-1
  Root length (Fig. 3b): 25.833 and 26.302 and 24.889 and 27.342 and 26.636 and 27.534 and 28.728 and 25.164 and 27.761
  Root length (Fig. 3e): 22.911 and 21.027 and 23.034 and 25.697 and 26.332 and 26.187 and 22.644 and 27.144 and 23.211 and 23.187
[1]; mik2-1 and mik2-2, 10-day-old seedlings, 1 µM peptide
  root growth inhibition in mik2: insensitive to the treatment of SCOOP10^B
[1]; mik2-2
  Root length (Fig. 3b): 28.386 and 27.709 and 30.155 and 29.447 and 28.883 and 28.332 and 29.63 and 28.607 and 26.83
  Root length (Fig. 3e): 22.343 and 22.532 and 23.158 and 21.859 and 27.286 and 27.619 and 26.253 and 24.148 and 29.659 and 25.362
BIK1
  BIK1 phosphorylation: led to the phosphorylation of BIK1
[2]; 1 µM, 1 h, RT-qPCR
  WRKY30, WRKY33 and CYP81F2 expression: upregulation
[2]; repeat 1
  CYP81F2 expression (Fig. 3i): 82.36
[2]; repeat 2
  CYP81F2 expression (Fig. 3i): 146.22
[2]; repeat 3
  CYP81F2 expression (Fig. 3i): 132.08
[2]; repeat 4
  CYP81F2 expression (Fig. 3i): 187.19
Arabidopsis WT seedlings; Ca^2+, ROS, MAPK, compared with other SCOOPs
  potency in triggering PTI responses: more potent activities than others in triggering PTI responses
Arabidopsis WT seedlings; repeat 1
  ROS production, total luminescence (Fig. 2h): 9151950
  ROS production, total luminescence (Fig. 3f): 36200000
Arabidopsis WT seedlings; repeat 2
  ROS production, total luminescence (Fig. 2h): 10580582
  ROS production, total luminescence (Fig. 3f): 29800000
Arabidopsis WT seedlings; repeat 3
  ROS production, total luminescence (Fig. 2h): 7374543
  ROS production, total luminescence (Fig. 3f): 21300000
[3]
  MAPK activation in mik2: abolished in mik2 mutants
[4]
  root growth inhibition in bik1/pbl1: significantly compromised in the bik1/pbl1 mutant
[5]; bak1-4, 1 µM
  root growth inhibition in bak1-4: partially compromised in bak1-4
[5]; bak1-5/serk4, 1 µM
  root growth inhibition in bak1-5/serk4: compromised in bak1-4 and bak1-5/serk4
[6]
  MYB51 promoter activity in roots: induced the promoter activities of MYB51

## RLASGP(OH)SPRGRGH [PIP1, secreted peptide, ligand of RLK7]
Arabidopsis
  BIK1 dependence of responses: BIK1-independent
[7]; RLK7/rlk7 L4, 100 nM PIP1, one-week-old seedlings, repeat 1
  ROS production, total: 239291 RLU
[7]; RLK7/rlk7 L4, 100 nM PIP1, one-week-old seedlings, repeat 2
  ROS production, total: 252204 RLU
[7]; RLK7/rlk7 L4, 100 nM PIP1, one-week-old seedlings, repeat 3
  ROS production, total: 283681 RLU
[7]; RLK7/rlk7 L4, 100 nM PIP1, one-week-old seedlings, repeat 4
  ROS production, total: 318922 RLU
[7]; RLK7/rlk7 L5, 100 nM PIP1, one-week-old seedlings, repeat 1
  ROS production, total: 275783 RLU
[7]; RLK7/rlk7 L5, 100 nM PIP1, one-week-old seedlings, repeat 2
  ROS production, total: 220663 RLU
[7]; RLK7/rlk7 L5, 100 nM PIP1, one-week-old seedlings, repeat 3
  ROS production, total: 252086 RLU
[7]; RLK7/rlk7 L5, 100 nM PIP1, one-week-old seedlings, repeat 4
  ROS production, total: 358908 RLU
[7]; RLK7ECD-MIK2TK/rlk7 L9, 100 nM PIP1, one-week-old seedlings, repeat 1
  ROS production, total: 1753777 RLU
[7]; RLK7ECD-MIK2TK/rlk7 L9, 100 nM PIP1, one-week-old seedlings, repeat 2
  ROS production, total: 1827311 RLU
[7]; RLK7ECD-MIK2TK/rlk7 L9, 100 nM PIP1, one-week-old seedlings, repeat 3
  ROS production, total: 2926668 RLU
[7]; RLK7ECD-MIK2TK/rlk7 L9, 100 nM PIP1, one-week-old seedlings, repeat 4
  ROS production, total: 3467034 RLU
[7]; RLK7ECD-MIK2TK/rlk7 L9, 100 nM PIP1, one-week-old seedlings, repeat 5
  ROS production, total: 1491639 RLU
[7]; RLK7ECD-MIK2TK/rlk7 L16, 100 nM PIP1, one-week-old seedlings, repeat 1
  ROS production, total: 3868648 RLU
[7]; RLK7ECD-MIK2TK/rlk7 L16, 100 nM PIP1, one-week-old seedlings, repeat 2
  ROS production, total: 1259772 RLU
[7]; RLK7ECD-MIK2TK/rlk7 L16, 100 nM PIP1, one-week-old seedlings, repeat 3
  ROS production, total: 2844613 RLU
[7]; RLK7ECD-MIK2TK/rlk7 L16, 100 nM PIP1, one-week-old seedlings, repeat 4
  ROS production, total: 3037378 RLU
[7]; RLK7ECD-MIK2TK/rlk7 L16, 100 nM PIP1, one-week-old seedlings, repeat 5
  ROS production, total: 940879 RLU
[7]; RLK7/rlk7, 100 nM PIP1
  ROS production: weakly induced ROS production
[7]; RLK7^ECD-MIK2^TK/rlk7, 100 nM PIP1
  ROS production: robust production of ROS
